The values below come from patent publication US4746658A, “2-phenyl-imidazo-pyrazines, -pyridazines and -triazines” (Dr. Karl Thomae GmbH, priority 1983, dated 1988).

The test system of this experiment is anesthetized cat. The experiment is described as follows: Determination of the effect on blood pressure and of the positive inotropic effect in the anesthetized cat. The format is in vivo. The following applies: injected into vena femoralis, average, at least 3 cats; for Effect on blood pressure in mm Hg (first figure of pair) / Effect on blood pressure in mm Hg (second figure of pair): arterial pressure in aorta abdominalis. The method, then: The above pharmacological properties were ascertained for the compounds of the present invention by the standard pharmacological test method described below, and the results of this test for two representative species of the genus are shown in the table below, where
Determination of the effect on blood pressure and of the positive inotropic effect in the anesthetized cat
The tests were carried out on cats which had been anesthetized with sodium pentobarbital (40 mg/kg i.p.). The animals breathed spontaneously. The arterial blood pressure was measured in the aorta abdominalis with a Statham pressure transducer (P 23 Dc). In order to determine the positive inotropic activity, the pressure in the left ventricle was measured with a catheter-tip manometer (Millar PC-350 A). From this the contractility parameter dp/dt was obtained, using an analog differentiator. The test compounds were injected into a vena femoralis. Polydiol 200 was used as the solvent. Each compound was tested on at least 3 cats.

In the case of `COc1cc(OS(C)(=O)=O)ccc1-c1nc2cnncc2[nH]1` [B, 2-(2-Methoxy-4-methanesulfonyloxy-phenyl)-imidazo[4,5-d]pyridazine], for the setting “0.3 mg/kg”, the “Effect on blood pressure in mm Hg (first figure of pair)” value was -31 mm Hg, the “Effect on blood pressure in mm Hg (second figure of pair)” value is reported as -18 mm Hg, the “Duration of activity (half life)” value stood at 38 min and the “Increase in dp/dtmax in %” value amounted to 36%.
In the case of `COc1cc(OS(C)(=O)=O)ccc1-c1nc2nccnc2[nH]1` [A, 2-(2-methoxy-4-methanesulfonyloxy-phenyl)-imidazo[4,5-b]pyrazine], for the setting “0.6 mg/kg”, the “Effect on blood pressure in mm Hg (first figure of pair)” value is on record as -24 mm Hg, the “Effect on blood pressure in mm Hg (second figure of pair)” value is given as -21 mm Hg, the “Duration of activity (half life)” value was determined as 20 min and the “Increase in dp/dtmax in %” value is on record as 54%.
